According to article PMC10354055, “An optimized Nurr1 agonist provides disease-modifying effects in Parkinson’s disease models” (Nature Communications, 2023):
Values joined by “and” are separate entries in the source; they are usually repeats but may differ in a detail not shown here. Equal values may be shown once.

Tests used:
MPTP-induced male mice [1] = assay: IHC of Iba-1+ microglia in STR and SNpc, MPTP-induced mice; type: in vivo, mouse
Method: (§1) MPTP (Sigma-Aldrich) was intraperitoneally (i.p.) injected (30 mg/kg) for 5 days (Day 1-5). […] To test dyskinetic involuntary behavior, an L-DOPA injected group was included, which received 50 mg/kg of L-DOPA and 15 mg/kg of benserazide (Sigma-Aldrich) (i.p.) for 16 days (Day 1–16). All compounds were administered 6 h post-MPTP injection to avoid any effect of compounds on the MPTP metabolism in the brain. Motor and non-motor related behavior tests were performed on the following days as described in Fig. 4a in an assessor- and observer-blinded fashion. Pre-training and baseline setup for motor-related behaviors were performed 3 days prior to the injections. Mice were sacrificed and subjected to immunohistochemistry. Mice were housed at the Animal Care Facilities of McLean Hospital under a 12-h light/12-h dark cycle, ambient temperature and humidity. Animals were handled in accordance with McLean Hospital’s Institutional Animal Care and Use Committee (Protocol #: 2015N000002) and followed National Institutes of Health guidelines.
Images were acquired using a KEYENCE microscope and quantified as the number or optical density of immunoreactive cells using ImageJ software.
The numbers of TH^+ DA neurons, NeuN^+ neurons, pS129 αSyn^+ cells in the SN and Iba-1^+ microglia in the SN and striatum were stereologically counted in six coronal sections (30 µm thickness) taken every 6th section (180 µm intervals) for each brain. The boundaries of the SN and striatum were delimited at low magnification (4X) to estimate each total area. Immunoreactive cells were counted with images taken at high magnification (×40) by a single blinded investigator. The group mean of the total number of immunoreactive cells from each brain was transformed as percentage of the number in the control group (%). For AAV-αSyn-induced mice, the group mean of the total number of cells in the ipsilateral side was transformed as a percentage of that observed in the contralateral side.

N27-A cells [2] = assay: Mitochondrial activity assay, Seahorse XFp, N27-A cells; type: cell-based, rat; set-up: Seahorse time trace (OCR): unit not given here; conditions: for OCR changes after FCCP injection: MPP+ co-treatment, individual replicates (Supplementary Figure S1o); for Seahorse time trace (OCR) / Basal respiration / Maximal respiration / ATP turnover: replicates; for Basal respiration: Fig. S1l; for Basal respiration / Maximal respiration / ATP turnover: with MPP+; for Maximal respiration: Fig. S1m; for ATP turnover: Fig. S1n
Method: Mitochondrial activity was measured using the Seahorse XFp analyzer (Agilent Technologies) according to the manufacturer’s instruction. Briefly, cells were plated onto wells of a XFp cell culture miniplate and incubated in a 37 °C incubator overnight. The assay was performed after cells were equilibrated for 1 h in XF assay medium supplemented with 10 mM D-glucose, 5 mM sodium pyruvate, and 2 mM glutamax in a non-CO2 incubator. Mitochondrial activity was monitored through sequential injections of 1 μM oligomycin, 2 μM carbonyl cyanide-4 (trifluoromethoxy) phenylhydrazone (FCCP) and 0.5 μM rotenone/antimycin A to calculate basal respiration (= baseline oxygen consumption rate (OCR)−rotenone/antimycin A OCR), maximal respiration (= FCCP OCR−rotenone/antimycin A OCR), ATP turnover (= baseline OCR−oligomycin OCR), and OCR changes after FCCP injection (= FCCP OCR−oligomycin OCR). Each plotted value was normalized to total protein quantified using a Bradford protein assay (Bio-Rad) and analyzed using the Seahorse WAVE Desktop software (Agilent Technologies).

N27-A cells [3] = assay: Lysosomal pH detection, LysoSensor, N27-A cells; type: cell-based, rat; conditions: Figure 3d; individual replicates
Method: Lysosomal pH was detected as previously described. Briefly, after incubation in EBSS containing BafA1 (10 nM), CQ (20 µM), or 4A7C-301 (1 µM) for 6 h, HeLa and N27-A cells were treated with LysoSensor™ Yellow/Blue DND-160 (5 µM; Life Technology) for 45 min, followed by 2 washes in HEPES buffer (Gibco). Fluorescence images at excitation/emission wavelengths of 360/460 nm and 470/525 nm were taken immediately using a 400 nm dichroic mirror (KEYENCE). The ratio of fluorescence intensities (F360/470) were measured and calculated manually using ImageJ for each cell. The average pH from measuring 5 cells from each of three wells for each treatment group in both HeLa and N27-A cells was calculated by fitting the F360/470 values to a plotted pH calibration curve with KCl/NaCl buffered from pH 3.5 to 7.0 using GraphPad Prism (Version 8.0.2).

Nurr1-LBD = target: T1, Nurr1-LBD (Mus musculus, UniProt Q06219); assay: Luciferase reporter assay, Nurr1-LBD, SK-N-BE(2)C cells; type: cell-based; conditions: for Luciferase activity (fold): Fig. 1d
T1 construct: transfected with pCMV-fNurr1, pGAL-Nurr1(LBD), pGAL-Nor1(LBD) or pGAL-Nur77(LBD) and reporter construct; expressed in transfected cells; host or cells: SK-N-BE(2)C (human neuroblastoma), N27-A (rat dopaminergic), MN9D (murine dopaminergic)
Text: Nurr1 transactivity was normalized to β-galactosidase activity.

MPTP-induced male mice [4] = assay: Pole test, MPTP-induced PD model mice; type: in vivo, mouse
Method: as §1
Mice were trained to descend a vertical metal rod wrapped with rough tape (80 cm high, 12 mm diameter) once per day for 2 days, and then the baseline was measured before the pole test (3 days before the MPTP injection or the first pole test at week 2). Mice were placed head-upward on the pole and total descent time was recorded.

T1 sequence (Q06219 360-595 limits assumed): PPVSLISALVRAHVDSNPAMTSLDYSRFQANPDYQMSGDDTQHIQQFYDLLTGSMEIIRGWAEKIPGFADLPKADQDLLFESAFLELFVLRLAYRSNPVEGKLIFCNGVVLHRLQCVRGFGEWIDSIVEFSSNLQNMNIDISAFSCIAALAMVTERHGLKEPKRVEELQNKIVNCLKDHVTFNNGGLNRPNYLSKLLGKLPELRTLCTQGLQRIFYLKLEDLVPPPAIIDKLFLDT

## CCN1CCN(c2cc(N3CCN(CC)CC3)nc(NCCNc3ccnc4cc(Cl)ccc34)n2)CC1 [4A7C-301, N^1-(4,6-bis(4-ethylpiperazin-1-yl)pyrimidin-2-yl)-N^2-(7-chloroquinolin-4-yl)ethane-1,2-diamine]
MPTP-induced male mice [1]; Figure 4m, MPTP-induced mice, individual animal values
  Iba-1+ cells in STR (% of control): 125.5 % of control and 139.6 % of control and 120.61 % of control and 117.09 % of control and 138.52 % of control and 80.29 % of control and 135.9 % of control
MPTP-induced male mice [1]; Figure 4n, MPTP-induced mice, individual animal values
  Iba-1+ cells in SNpc (% of control): 160.25 % of control and 167.13 % of control and 152.39 % of control and 127.81 % of control and 217.28 % of control and 189.75 % of control and 198.6 % of control
MPTP-induced male mice [1]; MPTP mice
  Iba-1+ microglia in STR and SN (in words): markedly reduced
N27-A cells [2]; CQ 100 µM, 4A7C-301 1 µM
  OXPHOS capacity reduced by MPP+ (in words): efficiently restored
N27-A cells [2]; Control N27-A cells
  OCR changes after FCCP injection: 22.93 pmol/min/µg protein and 28.37 pmol/min/µg protein and 27.04 pmol/min/µg protein and 22.31 pmol/min/µg protein
N27-A cells [2]; Fig. S1j/k, Control + MPP+, time 2 min
  Seahorse time trace (OCR): 28.88 and 28.2 and 18.44 and 14.94
N27-A cells [2]; Fig. S1j/k, Control + MPP+, time 8 min
  Seahorse time trace (OCR): 28.86 and 28.61 and 14.72 and 11.2
N27-A cells [2]; Fig. S1j/k, Control + MPP+, time 15 min
  Seahorse time trace (OCR): 28.17 and 28.8 and 13.75 and 10.54
N27-A cells [2]; Fig. S1j/k, Control + MPP+, time 21 min
  Seahorse time trace (OCR): 9.43 and 9.81 and 3.69 and 2.8
N27-A cells [2]; Fig. S1j/k, Control + MPP+, time 28 min
  Seahorse time trace (OCR): 9.7 and 9.86 and 4.4 and 3.39
N27-A cells [2]; Fig. S1j/k, Control + MPP+, time 34 min
  Seahorse time trace (OCR): 9.59 and 9.6 and 4.42 and 3.28
N27-A cells [2]; Fig. S1j/k, Control + MPP+, time 41 min
  Seahorse time trace (OCR): 32.36 and 38.18 and 30.73 and 25.11
N27-A cells [2]; Fig. S1j/k, Control + MPP+, time 47 min
  Seahorse time trace (OCR): 29.9 and 35.04 and 27.29 and 22.64
N27-A cells [2]; Fig. S1j/k, Control + MPP+, time 54 min
  Seahorse time trace (OCR): 29.63 and 34.46 and 27.32 and 22.95
N27-A cells [2]; Fig. S1j/k, Control + MPP+, time 61 min
  Seahorse time trace (OCR): 9.52 and 9.47 and 4.93 and 3.5
N27-A cells [2]; Fig. S1j/k, Control + MPP+, time 67 min
  Seahorse time trace (OCR): 9.83 (2×) and 4.57 and 3.36
N27-A cells [2]; Fig. S1j/k, Control + MPP+, time 74 min
  Seahorse time trace (OCR): 9.8 and 10.29 and 4.41 and 3.28
N27-A cells [2]; Fig. S1j, Nurr1 OE + MPP+, time 2 min
  Seahorse time trace (OCR): 21.96 and 38.12 and 34.89 and 26.1
N27-A cells [2]; Fig. S1j, Nurr1 OE + MPP+, time 8 min
  Seahorse time trace (OCR): 20.5 and 33.32 and 33.36 and 24.15
N27-A cells [2]; Fig. S1j, Nurr1 OE + MPP+, time 15 min
  Seahorse time trace (OCR): 22.25 and 31.43 and 31.49 and 19.26
N27-A cells [2]; Fig. S1j, Nurr1 OE + MPP+, time 21 min
  Seahorse time trace (OCR): 7.36 and 10.03 and 6.69 and 7.02
N27-A cells [2]; Fig. S1j, Nurr1 OE + MPP+, time 28 min
  Seahorse time trace (OCR): 8.04 and 9.23 and 7.6 and 8.44
N27-A cells [2]; Fig. S1j, Nurr1 OE + MPP+, time 34 min
  Seahorse time trace (OCR): 7.79 and 8.85 and 8.38 and 8.58
N27-A cells [2]; Fig. S1j, Nurr1 OE + MPP+, time 41 min
  Seahorse time trace (OCR): 58.47 and 42.11 and 44.82 and 40.84
N27-A cells [2]; Fig. S1j, Nurr1 OE + MPP+, time 47 min
  Seahorse time trace (OCR): 58.99 and 40.77 and 43.63 and 37.36
N27-A cells [2]; Fig. S1j, Nurr1 OE + MPP+, time 54 min
  Seahorse time trace (OCR): 57.85 and 39.58 and 42.17 and 36.47
N27-A cells [2]; Fig. S1j, Nurr1 OE + MPP+, time 61 min
  Seahorse time trace (OCR): 7.42 and 11.41 and 5.09 and 5.68
N27-A cells [2]; Fig. S1j, Nurr1 OE + MPP+, time 67 min
  Seahorse time trace (OCR): 7.08 and 11.69 and 6.18 and 6.3
N27-A cells [2]; Fig. S1j, Nurr1 OE + MPP+, time 74 min
  Seahorse time trace (OCR): 8.5 and 11.39 and 6.45 and 6.32
N27-A cells [2]; Fig. S1k, Nurr1 KD + MPP+, time 2 min
  Seahorse time trace (OCR): 9.8 and 10.5 and 12.93 and 13.97
N27-A cells [2]; Control cells
  Basal respiration: 19.37 pmol/min/µg protein and 19.34 pmol/min/µg protein and 12.02 pmol/min/µg protein and 10.67 pmol/min/µg protein
  Maximal respiration: 22.85 pmol/min/µg protein and 28.71 pmol/min/µg protein and 26.31 pmol/min/µg protein and 21.83 pmol/min/µg protein
  ATP turnover: 19.25 pmol/min/µg protein and 18 pmol/min/µg protein and 12.75 pmol/min/µg protein and 12.14 pmol/min/µg protein
N27-A cells [2]; Nurr1 KD cells
  Basal respiration: 6.31 pmol/min/µg protein and 5.78 pmol/min/µg protein and 7.24 pmol/min/µg protein and 8.35 pmol/min/µg protein
  Maximal respiration: 28.48 pmol/min/µg protein and 29.74 pmol/min/µg protein and 27.18 pmol/min/µg protein and 19.97 pmol/min/µg protein
  ATP turnover: 5.27 pmol/min/µg protein and 5.05 pmol/min/µg protein and 6.03 pmol/min/µg protein and 7.23 pmol/min/µg protein
N27-A cells [2]; Nurr1 OE cells
  Basal respiration: 19.17 pmol/min/µg protein and 26.73 pmol/min/µg protein and 28.79 pmol/min/µg protein and 22.43 pmol/min/µg protein
  Maximal respiration: 51.91 pmol/min/µg protein and 33.72 pmol/min/µg protein and 39.72 pmol/min/µg protein and 35.16 pmol/min/µg protein
  ATP turnover: 17.88 pmol/min/µg protein and 29.57 pmol/min/µg protein and 28.2 pmol/min/µg protein and 20.09 pmol/min/µg protein
N27-A cells [2]; Nurr1 KD N27-A cells
  OCR changes after FCCP injection: 27.63 pmol/min/µg protein and 29.1 pmol/min/µg protein and 27.24 pmol/min/µg protein and 20.05 pmol/min/µg protein
N27-A cells [2]; Nurr1 OE N27-A cells
  OCR changes after FCCP injection: 50.72 pmol/min/µg protein and 34.26 pmol/min/µg protein and 38.13 pmol/min/µg protein and 33.82 pmol/min/µg protein
N27-A cells [3]
  Lysosomal pH: 3.797 and 3.992 and 4.709 and 4.807 and 4.383 and 3.8621 and 3.96 and 4.416 and 4.97 and 4.481 and 4.351 and 4.742 and 4.221 and 3.927
Nurr1-LBD; Fig. 1f, CQ 100 µM, 4A7C-301 20 µM
  Luciferase activity (fold), Nurr1: 16.1033 fold and 17.0687 fold and 15.1126 fold
Nurr1-LBD; 0.1 µM
  Luciferase activity (fold): 1.566 fold and 1.556 fold and 1.583 fold
Nurr1-LBD; 1 µM
  Luciferase activity (fold): 2.853 fold and 2.913 fold and 2.848 fold
Nurr1-LBD; 10 µM
  Luciferase activity (fold): 8.938 fold and 9.512 fold and 11.2109 fold
Nurr1-LBD; 20 µM
  Luciferase activity (fold): 17.8435 fold and 18.5652 fold and 17.952 fold
Nurr1-LBD; Nurr1-LBD and full-length Nurr1, SK-N-BE(2)C cells, Fig. 1d,e
  EC50: 7 to 8 µM
Nurr1-LBD; Nurr1 activation, Supplementary Table 1
  Maximum fold activity: 18.12 ± 3.02 fold and 18.12 fold
Nurr1-LBD; Nurr1 activation, Supplementary Table 1, values in µM
  EC50: 6.53 µM
MPTP-induced male mice [4]; CQ 40, 4A7C-301 5, L-DOPA 50 mg/kg/day, i.p., 16 days
  motor function, pole test (in words): significantly rescued
MPTP-induced male mice [4]; Figure 4c, MPTP-induced mice, individual animal values
  Time to traverse: 9.46 s and 8.08 s and 8.64 s and 7.97 s and 6.34 s and 6.11 s and 6.58 s and 5.5 s and 7.12 s
